Laboratory results from PMC9569420 (Communications Biology, 2022).

What was measured:
RSK1 = molecular target: T1, RSK1 (Homo sapiens, UniProt Q15418); test: HotSpot kinase assay; type: biochemical; details: read-out: % Enzyme Activity (relative to DMSO controls)
T1 construct: purchased Reaction Biology Corporation

EPHA8 = molecular target: T2, EPHA8 (Homo sapiens, UniProt P29322); test: HotSpot kinase assay; type: biochemical; details: read-out: % Enzyme Activity (relative to DMSO controls)
T2 construct: purchased Reaction Biology Corporation

CHK2 = molecular target: T3, CHK2 (Homo sapiens, UniProt O96017); test: HotSpot kinase assay; type: biochemical; details: read-out: % Enzyme Activity (relative to DMSO controls)
T3 construct: purchased Reaction Biology Corporation

TBK1 = molecular target: T4, TBK1 (Homo sapiens, UniProt Q9UHD2); test: HotSpot kinase assay; type: biochemical; details: read-out: % Enzyme Activity (relative to DMSO controls)
T4 construct: purchased Reaction Biology Corporation

JAK3 = molecular target: T5, JAK3 (Homo sapiens, UniProt P52333); test: HotSpot kinase assay; type: biochemical; details: read-out: % Enzyme Activity (relative to DMSO controls)
T5 construct: purchased Reaction Biology Corporation

PLK2 = molecular target: T6, PLK2 (Homo sapiens, UniProt Q9NYY3); test: HotSpot kinase assay; type: biochemical; details: read-out: % Enzyme Activity (relative to DMSO controls)
T6 construct: purchased Reaction Biology Corporation

TAOK2/TAO1 = molecular target: T7, TAOK2/TAO1 (Homo sapiens, UniProt Q9UL54); test: HotSpot kinase assay; type: biochemical; details: read-out: % Enzyme Activity (relative to DMSO controls)
T7 construct: purchased Reaction Biology Corporation

OSR1/OXSR1 = molecular target: T8, OSR1/OXSR1 (Homo sapiens, UniProt O95747); test: HotSpot kinase assay; type: biochemical; details: read-out: % Enzyme Activity (relative to DMSO controls)
T8 construct: purchased Reaction Biology Corporation

PLSCR1 = PLSCR1 phosphorylation (IP/western), HSV-2 infected HaCaT cells; type: cell-based, human; details: 10 μM, 30 min
RSK4 = molecular target: T9, RSK4 (Homo sapiens, UniProt Q9UK32); test: HotSpot kinase assay; type: biochemical; details: read-out: % Enzyme Activity (relative to DMSO controls)
T9 construct: purchased Reaction Biology Corporation

ERK2/MAPK1 = molecular target: T10, ERK2/MAPK1 (Homo sapiens, UniProt P28482); test: HotSpot kinase assay; type: biochemical; details: read-out: % Enzyme Activity (relative to DMSO controls)
T10 construct: purchased Reaction Biology Corporation

GRK3 = molecular target: T11, GRK3 (Homo sapiens, UniProt P35626); test: HotSpot kinase assay; type: biochemical; details: read-out: % Enzyme Activity (relative to DMSO controls)
T11 construct: purchased Reaction Biology Corporation
T11 sequence (P35626 whole entry): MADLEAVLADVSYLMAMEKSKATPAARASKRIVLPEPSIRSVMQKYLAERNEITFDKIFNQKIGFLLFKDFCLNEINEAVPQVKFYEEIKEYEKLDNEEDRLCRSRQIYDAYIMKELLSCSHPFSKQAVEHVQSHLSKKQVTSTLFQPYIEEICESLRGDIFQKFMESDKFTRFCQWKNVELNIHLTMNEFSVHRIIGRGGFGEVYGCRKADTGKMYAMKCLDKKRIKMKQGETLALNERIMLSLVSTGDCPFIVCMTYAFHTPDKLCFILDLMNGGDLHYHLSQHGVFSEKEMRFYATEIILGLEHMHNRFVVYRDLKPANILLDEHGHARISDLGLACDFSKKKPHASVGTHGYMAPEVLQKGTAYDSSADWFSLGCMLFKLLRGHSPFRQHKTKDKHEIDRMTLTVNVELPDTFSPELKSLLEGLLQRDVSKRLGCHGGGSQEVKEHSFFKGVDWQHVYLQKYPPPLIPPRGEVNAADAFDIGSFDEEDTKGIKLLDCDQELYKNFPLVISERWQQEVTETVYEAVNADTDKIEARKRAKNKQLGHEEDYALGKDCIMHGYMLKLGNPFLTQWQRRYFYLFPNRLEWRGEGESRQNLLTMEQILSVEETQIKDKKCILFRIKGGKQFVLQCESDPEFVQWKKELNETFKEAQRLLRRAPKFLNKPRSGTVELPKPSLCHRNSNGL

NLK = molecular target: T12, NLK (Homo sapiens, UniProt Q9UBE8); test: HotSpot kinase assay; type: biochemical; details: read-out: % Enzyme Activity (relative to DMSO controls)
T12 construct: purchased Reaction Biology Corporation
T12 sequence (Q9UBE8 whole entry): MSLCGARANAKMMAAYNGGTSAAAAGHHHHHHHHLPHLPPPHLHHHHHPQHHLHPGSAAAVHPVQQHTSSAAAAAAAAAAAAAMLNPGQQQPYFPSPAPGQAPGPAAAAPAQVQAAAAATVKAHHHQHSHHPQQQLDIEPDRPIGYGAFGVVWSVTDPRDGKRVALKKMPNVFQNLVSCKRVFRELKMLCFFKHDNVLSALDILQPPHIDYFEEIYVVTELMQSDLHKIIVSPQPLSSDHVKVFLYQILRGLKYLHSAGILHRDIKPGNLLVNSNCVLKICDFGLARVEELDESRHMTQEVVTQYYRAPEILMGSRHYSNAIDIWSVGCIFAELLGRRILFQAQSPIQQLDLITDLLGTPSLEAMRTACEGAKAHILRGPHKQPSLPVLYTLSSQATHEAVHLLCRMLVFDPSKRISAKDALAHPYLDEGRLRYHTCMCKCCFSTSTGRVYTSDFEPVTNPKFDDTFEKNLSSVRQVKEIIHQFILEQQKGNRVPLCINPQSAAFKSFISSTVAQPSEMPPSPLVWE

HSV-2(G) = test: HSV plaque assay, primary vaginal cells; type: cell-based; details: Human alphaherpesvirus 2, read-out: inhibition of HSV-2 infection
Procedure: After 48 h incubation, plaques were counted by immunoassay using an anti–human IgG antibody peroxidase conjugate (PA1-86064, Thermo Fisher)[33]. […] Western blots were prepared and probed for gD as a marker of bound virus and β-actin as a control.

STK32C/YANK3 = molecular target: T13, STK32C/YANK3 (Homo sapiens, UniProt Q86UX6); test: HotSpot kinase assay; type: biochemical; details: read-out: % Enzyme Activity (relative to DMSO controls)
T13 construct: purchased Reaction Biology Corporation

LKB1 = molecular target: T14, LKB1 (Homo sapiens, UniProt Q15831); test: HotSpot kinase assay; type: biochemical; details: read-out: % Enzyme Activity (relative to DMSO controls)
T14 construct: purchased Reaction Biology Corporation

MARK1 = molecular target: T15, MARK1 (Homo sapiens, UniProt Q9P0L2); test: HotSpot kinase assay; type: biochemical; details: read-out: % Enzyme Activity (relative to DMSO controls)
T15 construct: purchased Reaction Biology Corporation

IKKa/CHUK = molecular target: T16, IKKa/CHUK (Homo sapiens, UniProt O15111); test: HotSpot kinase assay; type: biochemical; details: read-out: % Enzyme Activity (relative to DMSO controls)
T16 construct: purchased Reaction Biology Corporation

NEK11 = molecular target: T17, NEK11 (Homo sapiens, UniProt Q8NG66); test: HotSpot kinase assay; type: biochemical; details: read-out: % Enzyme Activity (relative to DMSO controls)
T17 construct: purchased Reaction Biology Corporation

EPHA2 = molecular target: T18, EPHA2 (Homo sapiens, UniProt P29317); test: HotSpot kinase assay; type: biochemical; details: read-out: % Enzyme Activity (relative to DMSO controls)
T18 construct: purchased Reaction Biology Corporation

LYN = molecular target: T19, LYN (Homo sapiens, UniProt P07948); test: HotSpot kinase assay; type: biochemical; details: read-out: % Enzyme Activity (relative to DMSO controls)
T19 construct: purchased Reaction Biology Corporation

PKCd = molecular target: T20, PKCd (Homo sapiens, UniProt Q05655); test: biochemical
T20 construct: purchased Reaction Biology Corporation
T20 sequence (Q05655 whole entry): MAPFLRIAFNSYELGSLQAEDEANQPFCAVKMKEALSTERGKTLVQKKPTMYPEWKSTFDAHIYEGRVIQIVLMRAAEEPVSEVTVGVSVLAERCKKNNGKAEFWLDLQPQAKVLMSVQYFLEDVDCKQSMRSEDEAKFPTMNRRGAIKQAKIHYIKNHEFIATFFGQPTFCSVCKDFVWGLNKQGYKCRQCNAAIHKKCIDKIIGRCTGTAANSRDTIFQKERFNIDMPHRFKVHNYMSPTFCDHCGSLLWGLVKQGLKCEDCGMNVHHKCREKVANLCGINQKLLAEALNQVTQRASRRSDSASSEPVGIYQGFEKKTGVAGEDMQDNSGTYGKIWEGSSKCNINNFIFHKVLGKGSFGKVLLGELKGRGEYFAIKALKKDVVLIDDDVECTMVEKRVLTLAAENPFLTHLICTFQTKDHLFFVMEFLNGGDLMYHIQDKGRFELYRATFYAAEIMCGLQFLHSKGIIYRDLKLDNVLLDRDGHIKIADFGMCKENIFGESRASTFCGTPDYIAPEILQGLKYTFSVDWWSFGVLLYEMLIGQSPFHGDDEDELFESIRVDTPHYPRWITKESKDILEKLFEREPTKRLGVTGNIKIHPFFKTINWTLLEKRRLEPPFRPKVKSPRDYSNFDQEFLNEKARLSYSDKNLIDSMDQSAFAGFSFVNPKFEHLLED

PKN1/PRK1 = molecular target: T21, PKN1/PRK1 (Homo sapiens, UniProt Q16512); test: HotSpot kinase assay; type: biochemical; details: read-out: % Enzyme Activity (relative to DMSO controls)
T21 construct: purchased Reaction Biology Corporation

PHKg2 = molecular target: T22, PHKg2 (Homo sapiens, UniProt P15735); test: HotSpot kinase assay; type: biochemical; details: read-out: % Enzyme Activity (relative to DMSO controls)
T22 construct: purchased Reaction Biology Corporation
T22 sequence (P15735 whole entry): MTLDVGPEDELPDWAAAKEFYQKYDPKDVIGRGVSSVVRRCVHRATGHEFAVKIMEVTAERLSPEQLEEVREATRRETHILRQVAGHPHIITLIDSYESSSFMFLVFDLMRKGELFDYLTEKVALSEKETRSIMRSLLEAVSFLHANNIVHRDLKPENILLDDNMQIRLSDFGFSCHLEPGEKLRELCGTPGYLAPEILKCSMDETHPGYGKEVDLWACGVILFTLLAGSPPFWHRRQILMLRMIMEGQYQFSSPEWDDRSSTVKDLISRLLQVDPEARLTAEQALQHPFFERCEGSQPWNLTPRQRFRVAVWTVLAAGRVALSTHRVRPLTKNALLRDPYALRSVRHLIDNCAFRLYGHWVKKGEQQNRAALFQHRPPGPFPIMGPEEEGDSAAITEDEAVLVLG

GLK/MAP4K3 = molecular target: T23, GLK/MAP4K3 (Homo sapiens, UniProt Q8IVH8); test: HotSpot kinase assay; type: biochemical; details: read-out: % Enzyme Activity (relative to DMSO controls)
T23 construct: purchased Reaction Biology Corporation

MAPKAPK5/PRAK = molecular target: T24, MAPKAPK5/PRAK (Homo sapiens, UniProt Q8IW41); test: HotSpot kinase assay; type: biochemical; details: read-out: % Enzyme Activity (relative to DMSO controls)
T24 construct: purchased Reaction Biology Corporation

TAOK1 = molecular target: T25, TAOK1 (Homo sapiens, UniProt Q7L7X3); test: HotSpot kinase assay; type: biochemical; details: read-out: % Enzyme Activity (relative to DMSO controls)
T25 construct: purchased Reaction Biology Corporation

CK2a2 = molecular target: T26, CK2a2 (Homo sapiens, UniProt P19784); test: HotSpot kinase assay; type: biochemical; details: read-out: % Enzyme Activity (relative to DMSO controls)
T26 construct: purchased Reaction Biology Corporation

ULK2 = molecular target: T27, ULK2 (Homo sapiens, UniProt Q8IYT8); test: HotSpot kinase assay; type: biochemical; details: read-out: % Enzyme Activity (relative to DMSO controls)
T27 construct: purchased Reaction Biology Corporation

MEKK1 = molecular target: T28, MEKK1 (Homo sapiens, UniProt Q13233); test: HotSpot kinase assay; type: biochemical; details: read-out: % Enzyme Activity (relative to DMSO controls)
T28 construct: purchased Reaction Biology Corporation

c-Src = molecular target: T29, c-Src (Homo sapiens, UniProt P12931); test: biochemical
T29 construct: purchased Reaction Biology Corporation
T29 sequence (P12931 whole entry): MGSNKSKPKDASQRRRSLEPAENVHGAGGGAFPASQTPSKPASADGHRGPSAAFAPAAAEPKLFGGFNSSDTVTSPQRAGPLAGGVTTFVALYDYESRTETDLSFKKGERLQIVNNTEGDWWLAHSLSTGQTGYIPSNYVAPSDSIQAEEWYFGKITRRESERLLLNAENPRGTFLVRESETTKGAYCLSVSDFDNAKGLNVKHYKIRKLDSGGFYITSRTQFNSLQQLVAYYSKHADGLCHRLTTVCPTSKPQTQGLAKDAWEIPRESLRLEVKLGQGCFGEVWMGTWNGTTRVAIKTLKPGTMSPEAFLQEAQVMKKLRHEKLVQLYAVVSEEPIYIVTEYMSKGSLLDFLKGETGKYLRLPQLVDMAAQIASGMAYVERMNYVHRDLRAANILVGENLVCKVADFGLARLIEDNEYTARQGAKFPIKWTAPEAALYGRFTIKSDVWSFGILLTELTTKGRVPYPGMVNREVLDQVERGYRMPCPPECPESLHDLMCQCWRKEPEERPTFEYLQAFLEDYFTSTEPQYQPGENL

GRK4 = molecular target: T30, GRK4 (Homo sapiens, UniProt P32298); test: HotSpot kinase assay; type: biochemical; details: read-out: % Enzyme Activity (relative to DMSO controls)
T30 construct: purchased Reaction Biology Corporation

LIMK1 = molecular target: T31, LIMK1 (Homo sapiens, UniProt P53667); test: HotSpot kinase assay; type: biochemical; details: read-out: % Enzyme Activity (relative to DMSO controls)
T31 construct: purchased Reaction Biology Corporation

CDK3/cyclin E = molecular target: T32, CDK3/cyclin E (Homo sapiens, UniProt Q00526); test: HotSpot kinase assay; type: biochemical; details: read-out: % Enzyme Activity (relative to DMSO controls)
T32 construct: purchased Reaction Biology Corporation

MYLK4 = molecular target: T33, MYLK4 (Homo sapiens, UniProt Q86YV6); test: HotSpot kinase assay; type: biochemical; details: read-out: % Enzyme Activity (relative to DMSO controls)
T33 construct: purchased Reaction Biology Corporation

EPHA1 = molecular target: T34, EPHA1 (Homo sapiens, UniProt P21709); test: HotSpot kinase assay; type: biochemical; details: read-out: % Enzyme Activity (relative to DMSO controls)
T34 construct: purchased Reaction Biology Corporation

FER = molecular target: T35, FER (Homo sapiens, UniProt P16591); test: HotSpot kinase assay; type: biochemical; details: read-out: % Enzyme Activity (relative to DMSO controls)
T35 construct: purchased Reaction Biology Corporation
T35 sequence (P16591 whole entry): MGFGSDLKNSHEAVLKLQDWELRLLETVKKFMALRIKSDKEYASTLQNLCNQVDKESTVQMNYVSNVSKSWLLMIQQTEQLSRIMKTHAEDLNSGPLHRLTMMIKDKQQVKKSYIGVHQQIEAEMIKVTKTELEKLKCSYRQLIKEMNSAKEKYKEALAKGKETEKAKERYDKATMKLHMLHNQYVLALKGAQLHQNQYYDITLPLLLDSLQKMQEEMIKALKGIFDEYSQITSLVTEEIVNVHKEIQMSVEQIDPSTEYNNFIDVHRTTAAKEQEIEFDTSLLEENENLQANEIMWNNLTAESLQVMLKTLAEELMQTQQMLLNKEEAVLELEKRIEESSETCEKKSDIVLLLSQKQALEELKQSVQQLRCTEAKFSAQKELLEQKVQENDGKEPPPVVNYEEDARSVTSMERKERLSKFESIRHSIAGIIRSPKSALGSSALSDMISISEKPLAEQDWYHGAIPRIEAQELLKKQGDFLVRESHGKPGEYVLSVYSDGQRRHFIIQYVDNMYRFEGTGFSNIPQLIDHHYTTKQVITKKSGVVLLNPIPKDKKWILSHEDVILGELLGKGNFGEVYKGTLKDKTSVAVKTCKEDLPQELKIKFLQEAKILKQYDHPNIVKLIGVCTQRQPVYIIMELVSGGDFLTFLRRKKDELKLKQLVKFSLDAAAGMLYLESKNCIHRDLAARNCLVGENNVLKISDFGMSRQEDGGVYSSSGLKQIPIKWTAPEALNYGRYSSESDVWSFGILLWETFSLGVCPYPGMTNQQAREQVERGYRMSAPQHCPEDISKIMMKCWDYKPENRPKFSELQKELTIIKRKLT

CLK4 = molecular target: T36, CLK4 (Homo sapiens, UniProt Q9HAZ1); test: HotSpot kinase assay; type: biochemical; details: read-out: % Enzyme Activity (relative to DMSO controls)
T36 construct: purchased Reaction Biology Corporation
T36 sequence (Q9HAZ1 whole entry): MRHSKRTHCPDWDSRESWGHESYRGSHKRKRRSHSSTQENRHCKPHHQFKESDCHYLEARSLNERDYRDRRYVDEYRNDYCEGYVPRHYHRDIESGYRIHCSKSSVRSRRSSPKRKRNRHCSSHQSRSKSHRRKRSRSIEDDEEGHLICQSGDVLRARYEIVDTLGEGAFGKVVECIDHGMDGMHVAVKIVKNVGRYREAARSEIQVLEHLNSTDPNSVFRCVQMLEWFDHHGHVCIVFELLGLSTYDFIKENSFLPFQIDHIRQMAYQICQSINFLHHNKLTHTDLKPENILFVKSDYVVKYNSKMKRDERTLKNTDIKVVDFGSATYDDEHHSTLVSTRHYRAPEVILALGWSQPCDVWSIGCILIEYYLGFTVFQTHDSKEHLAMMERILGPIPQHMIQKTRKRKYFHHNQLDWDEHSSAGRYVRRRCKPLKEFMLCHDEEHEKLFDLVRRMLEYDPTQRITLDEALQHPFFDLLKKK

PAK5 = molecular target: T37, PAK5 (Homo sapiens, UniProt Q9P286); test: HotSpot kinase assay; type: biochemical; details: read-out: % Enzyme Activity (relative to DMSO controls)
T37 construct: purchased Reaction Biology Corporation
T37 sequence (Q9P286 whole entry): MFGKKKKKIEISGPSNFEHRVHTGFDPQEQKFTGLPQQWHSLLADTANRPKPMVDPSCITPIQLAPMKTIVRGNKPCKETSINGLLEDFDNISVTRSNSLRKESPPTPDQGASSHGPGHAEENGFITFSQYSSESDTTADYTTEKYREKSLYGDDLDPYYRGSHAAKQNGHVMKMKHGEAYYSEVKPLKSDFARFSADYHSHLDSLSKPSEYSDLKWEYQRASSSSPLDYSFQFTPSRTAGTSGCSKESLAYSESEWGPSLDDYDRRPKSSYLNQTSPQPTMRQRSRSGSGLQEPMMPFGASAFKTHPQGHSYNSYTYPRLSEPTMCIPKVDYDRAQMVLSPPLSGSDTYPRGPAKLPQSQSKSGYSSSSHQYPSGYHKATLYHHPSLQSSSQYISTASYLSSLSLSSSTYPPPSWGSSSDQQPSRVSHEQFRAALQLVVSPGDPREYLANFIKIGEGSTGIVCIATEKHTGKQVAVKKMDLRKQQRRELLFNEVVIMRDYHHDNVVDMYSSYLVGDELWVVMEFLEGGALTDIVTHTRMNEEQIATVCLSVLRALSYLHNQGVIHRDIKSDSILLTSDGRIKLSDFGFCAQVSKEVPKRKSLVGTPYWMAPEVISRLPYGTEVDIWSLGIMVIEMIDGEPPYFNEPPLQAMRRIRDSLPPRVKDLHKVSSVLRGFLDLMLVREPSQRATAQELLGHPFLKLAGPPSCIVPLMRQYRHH

YSK4/MAP3K19 = molecular target: T38, YSK4/MAP3K19 (Homo sapiens, UniProt Q56UN5); test: HotSpot kinase assay; type: biochemical; details: read-out: % Enzyme Activity (relative to DMSO controls)
T38 construct: purchased Reaction Biology Corporation

[1] = Supplementary Table 1, read-out: IC50 (Molar concentration)
[2] = read-out: % Enzyme Activity (relative to DMSO controls), 10µM

## CO[C@@H]1[C@H](N(C)C(=O)CCC(=O)NCc2cn(CCCS(=O)(=O)O)nn2)C[C@H]2O[C@]1(C)n1c3ccccc3c3c4c(c5c6ccccc6n2c5c31)C(=O)NC4 [CIMSS]
RSK1
  remaining activity at 10 µM: 3.27%
EPHA8
  remaining activity at 10 µM: 70.1%
Akt, PDPK1, PLCγ; 10µM
  levels of phosphorylated Akt (serine 473 and threonine 308) in non-permeabilized cells: reduce levels
Akt, PDPK1, PLCγ; 10 µM, 15 and 30 min following viral infection
  phosphorylation of PDPK1 and PLCγ: inhibited
CHK2
  remaining activity at 10 µM: 25.4%
TBK1
  remaining activity at 10 µM: 2.01%
JAK3
  remaining activity at 10 µM: 0.97%
PLK2
  remaining activity at 10 µM: 27.4%
TAOK2/TAO1
  remaining activity at 10 µM: 36.3%
OSR1/OXSR1
  remaining activity at 10 µM: 54.2%
PLSCR1
  Phosphorylation of PLSCR1: not
RSK4
  remaining activity at 10 µM: 6.64%
ERK2/MAPK1
  remaining activity at 10 µM: 75.3%
GRK3
  remaining activity at 10 µM: 46.9%
NLK
  remaining activity at 10 µM: 73%
HSV-2(G)
  inhibition at 10 µM: > 75%
STK32C/YANK3
  remaining activity at 10 µM: 20.5%
LKB1
  remaining activity at 10 µM: 38%
MARK1
  remaining activity at 10 µM: 1.18%
IKKa/CHUK
  remaining activity at 10 µM: 31.6%
NEK11
  remaining activity at 10 µM: 52%
EPHA2
  remaining activity at 10 µM: 33.5%
LYN
  remaining activity at 10 µM: 2.5%
PKCd; [1]
  IC50: 3.64 nM
PKCd; [2]
  remaining activity at 10 µM: 8.64%
PKN1/PRK1
  remaining activity at 10 µM: 2.22%
PHKg2
  remaining activity at 10 µM: 18.4%
GLK/MAP4K3
  remaining activity at 10 µM: 0.96%
MAPKAPK5/PRAK
  remaining activity at 10 µM: 85.2%
TAOK1
  remaining activity at 10 µM: 6.83%
CK2a2
  remaining activity at 10 µM: 44.6%
ULK2
  remaining activity at 10 µM: 13.6%
MEKK1
  remaining activity at 10 µM: 67%
c-Src; [1]
  IC50: 11.9 nM
c-Src; [2]
  remaining activity at 10 µM: 2.95%
GRK4
  remaining activity at 10 µM: 19.8%
LIMK1
  remaining activity at 10 µM: 0.88%
CDK3/cyclin E
  remaining activity at 10 µM: 13.9%
MYLK4
  remaining activity at 10 µM: 6.48%
EPHA1
  remaining activity at 10 µM: 31.5%
FER
  remaining activity at 10 µM: 0.37%
CLK4
  remaining activity at 10 µM: 10.4%
PAK5
  remaining activity at 10 µM: 7.72%
YSK4/MAP3K19
  remaining activity at 10 µM: 3.4%
